Assay results as given in the NIST ThermoML archive (doi:10.1021/je060271a).
± gives the expanded uncertainty stated by the source.

Settings: 343.15 K, Liquid, Vibrating tube method

CCCCCCCC(=O)OCC(COC(=O)CCCCCCC)(COC(=O)CCCCCCC)COC(=O)CCCCCCC [pentaerythritol tetraoctanoate]
Settings	mass density [kg/m3]
14038 kPa	936.2 ± 1.2
14078 kPa	936.3 ± 1.2
14099 kPa	936.2 ± 1.2
14121 kPa	936.1 ± 1.2
14146 kPa	936.2 ± 1.2
14168 kPa	936.1 ± 1.2
14194 kPa	936.3 ± 1.2
14216 kPa	936.3 ± 1.2
14238 kPa	936.2 ± 1.2
14260 kPa	936.2 ± 1.2
14286 kPa	936.3 ± 1.2
14308 kPa	936.4 ± 1.2
14330 kPa	936.4 ± 1.2
14357 kPa	936.2 ± 1.2
14379 kPa	936.4 ± 1.2
14401 kPa	936.3 ± 1.2
14428 kPa	936.3 ± 1.2
14450 kPa	936.4 ± 1.2
14473 kPa	936.4 ± 1.2
14500 kPa	936.4 ± 1.2
14523 kPa	936.4 ± 1.2
14546 kPa	936.5 ± 1.2
14570 kPa	936.6 ± 1.2
14594 kPa	936.4 ± 1.2
14621 kPa	936.6 ± 1.2
14644 kPa	936.5 ± 1.2
14667 kPa	936.4 ± 1.2
14694 kPa	936.5 ± 1.2
14718 kPa	936.6 ± 1.2
14741 kPa	936.7 ± 1.2
14765 kPa	936.5 ± 1.2
14793 kPa	936.6 ± 1.2
14817 kPa	936.6 ± 1.2
14845 kPa	936.6 ± 1.2
14870 kPa	936.7 ± 1.2
14894 kPa	936.6 ± 1.2
14918 kPa	936.8 ± 1.2
14947 kPa	936.7 ± 1.2
14971 kPa	936.8 ± 1.2
14995 kPa	936.7 ± 1.2
15024 kPa	936.7 ± 1.2
15049 kPa	936.8 ± 1.2
15078 kPa	936.8 ± 1.2
15103 kPa	936.8 ± 1.2
15127 kPa	936.8 ± 1.2
15152 kPa	936.9 ± 1.2
15183 kPa	936.8 ± 1.2
15208 kPa	936.8 ± 1.2
15233 kPa	936.8 ± 1.2
15263 kPa	936.9 ± 1.2
15288 kPa	937 ± 1.2
15314 kPa	937 ± 1.2
15344 kPa	937 ± 1.2
15370 kPa	937 ± 1.2
15396 kPa	937.1 ± 1.2
15426 kPa	937.1 ± 1.2
15452 kPa	937 ± 1.2
15478 kPa	937 ± 1.2
15508 kPa	937 ± 1.2
15536 kPa	937 ± 1.2
15563 kPa	937.1 ± 1.2
15589 kPa	937.3 ± 1.2
15616 kPa	937.2 ± 1.2
15647 kPa	937.1 ± 1.2
15673 kPa	937.2 ± 1.2
15705 kPa	937.3 ± 1.2
15732 kPa	937.3 ± 1.2
15759 kPa	937.3 ± 1.2
15791 kPa	937.2 ± 1.2
15818 kPa	937.3 ± 1.2
15846 kPa	937.3 ± 1.2
15879 kPa	937.4 ± 1.2
15908 kPa	937.4 ± 1.2
15936 kPa	937.2 ± 1.2
15964 kPa	937.3 ± 1.2
15992 kPa	937.3 ± 1.2
16026 kPa	937.4 ± 1.2
16054 kPa	937.5 ± 1.2
16083 kPa	937.4 ± 1.2
16116 kPa	937.5 ± 1.2
16144 kPa	937.5 ± 1.2
16173 kPa	937.5 ± 1.2
16207 kPa	937.5 ± 1.2
16236 kPa	937.5 ± 1.2
16265 kPa	937.7 ± 1.2
16300 kPa	937.7 ± 1.2
16329 kPa	937.6 ± 1.2
16358 kPa	937.7 ± 1.2
16387 kPa	937.6 ± 1.2
16423 kPa	937.7 ± 1.2
16453 kPa	937.7 ± 1.2
16483 kPa	937.8 ± 1.2
16518 kPa	937.7 ± 1.2
16548 kPa	937.6 ± 1.2
16578 kPa	937.8 ± 1.2
16609 kPa	937.7 ± 1.2
16645 kPa	937.8 ± 1.2
16676 kPa	937.9 ± 1.2
16707 kPa	937.9 ± 1.2
16738 kPa	937.8 ± 1.2
16775 kPa	937.8 ± 1.2
16806 kPa	937.9 ± 1.2
16843 kPa	938.1 ± 1.2
16904 kPa	938 ± 1.2
16942 kPa	938 ± 1.2
16974 kPa	938.1 ± 1.2
17005 kPa	938 ± 1.2
17037 kPa	938.1 ± 1.2
17075 kPa	938.1 ± 1.2
17107 kPa	938.1 ± 1.2
17146 kPa	938.2 ± 1.2
17354 kPa	938.2 ± 1.2
17387 kPa	938.2 ± 1.2
17421 kPa	938.3 ± 1.2
17460 kPa	938.4 ± 1.2
17494 kPa	938.4 ± 1.2
17528 kPa	938.4 ± 1.2
17569 kPa	938.5 ± 1.2
17604 kPa	938.5 ± 1.2
17638 kPa	938.4 ± 1.2
17678 kPa	938.5 ± 1.2
17713 kPa	938.4 ± 1.2
17748 kPa	938.5 ± 1.2
17790 kPa	938.6 ± 1.2
17825 kPa	938.6 ± 1.2
17861 kPa	938.6 ± 1.2
17904 kPa	938.7 ± 1.2
17940 kPa	938.7 ± 1.2
17977 kPa	938.8 ± 1.2
18022 kPa	938.8 ± 1.2
18054 kPa	938.8 ± 1.2
18084 kPa	938.8 ± 1.2
18119 kPa	938.8 ± 1.2
18149 kPa	938.8 ± 1.2
18179 kPa	938.8 ± 1.2
18210 kPa	938.9 ± 1.2
18247 kPa	938.9 ± 1.2
18279 kPa	938.9 ± 1.2
18312 kPa	938.9 ± 1.2
18349 kPa	939 ± 1.2
18372 kPa	938.9 ± 1.2
18393 kPa	939.1 ± 1.2
18411 kPa	939.1 ± 1.2
18430 kPa	939 ± 1.2
18448 kPa	939 ± 1.2
18465 kPa	939.1 ± 1.2
18482 kPa	939.1 ± 1.2
18503 kPa	939.2 ± 1.2
